{"source": "patent US8197795B2", "about": "“Method for monitoring early treatment response” (Receptomon, LLC, priority 2004, dated 2012)", "origin": "cited, not measured here", "key": {"solid, malignant tumors": {"system": "solid, malignant tumors", "conditions": "patients with solid, Ranson et al. 2002"}, "NSCLC": {"system": "NSCLC", "conditions": "NSCLC patients treated with gefitinib; Lynch et al. 2004"}, "[1]": {"system": "xenograft models, including colon cancer, non-small cell lung cancer (NSCLC), and prostate cancer", "conditions": "Ranson et al."}}}
{"smiles": "COc1cc2ncnc(Nc3ccc(F)c(Cl)c3)c2cc1OCCCN1CCOCC1", "note": "[gefitinib]", "values": [{"measurement": "activity in patients", "setting": "solid, malignant tumors", "value": "active"}, {"measurement": "patients with a rapid and often dramatic clinical response", "setting": "NSCLC", "value": "about 10%"}, {"measurement": "activity in xenograft models", "setting": "[1]", "value": "active"}]}
